Measured values reported in US20080090805A1, “CB-1 MODULATING COMPOUNDS AND THEIR USE” (ACADIA PHARMACEUTICALS INC., priority 2005, published 2008).

Target: native CB1 receptors (Rattus norvegicus, UniProt P20272)
Experiment: CB1 receptor rat binding assay ([3H]SR141716A, rat brain membranes)
Conditions: rat brain membranes, [3H]SR141716A; for Ki: read-out: Binding rat pKi (converted)

Sequence of native CB1 receptors (P20272 whole entry): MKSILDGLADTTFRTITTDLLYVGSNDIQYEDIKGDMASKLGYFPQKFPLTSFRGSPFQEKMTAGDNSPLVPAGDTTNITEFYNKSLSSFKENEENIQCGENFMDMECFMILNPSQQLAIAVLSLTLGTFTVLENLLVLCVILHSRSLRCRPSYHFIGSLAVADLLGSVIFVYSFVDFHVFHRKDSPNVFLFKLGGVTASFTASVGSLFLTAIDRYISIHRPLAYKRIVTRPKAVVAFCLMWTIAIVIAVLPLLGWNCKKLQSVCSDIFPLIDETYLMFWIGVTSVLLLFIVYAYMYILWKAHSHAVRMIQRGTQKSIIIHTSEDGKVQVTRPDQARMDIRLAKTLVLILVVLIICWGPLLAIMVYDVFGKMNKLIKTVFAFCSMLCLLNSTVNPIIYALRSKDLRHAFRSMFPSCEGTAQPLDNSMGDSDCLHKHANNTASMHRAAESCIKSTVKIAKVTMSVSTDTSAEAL

| SMILES | Ki [µM] | Binding rat Inh % [%] |
| --- | --- | --- |
| O=C(NCCc1ccc(Cl)cc1)c1ccc2c(c1)N=C(c1ccccc1)c1ccccc1S2 [drawing 1440] | 0.00794 |  |
| Cc1ccc(CNC(=O)c2ccc3c(c2)N=C(c2ccc(Cl)cc2F)c2ccccc2S3)o1 [drawing 1441] | 0.00794 | 90 |
| O=C(NCCC(F)(F)F)c1ccc2c(c1)N=C(c1ccsc1)c1ccccc1S2 [drawing 1442] | 0.00794 | 88 |
| O=C(NCc1ccncc1)c1ccc2c(c1)N=C(c1ccc(F)cc1)c1ccccc1S2 [drawing 1443] | 0.0501 | 68 |
| O=C(NCCc1ccccc1)c1ccc2c(c1)N=C(c1ccccc1F)c1ccccc1S2 [drawing 1444] | 0.0501 |  |
| CC(C)NC(=O)c1ccc2c(c1)N=C(c1ccc(Cl)s1)c1ccccc1S2 [drawing 1445] | 0.0501 | 85 |
| CCOCCNC(=O)c1ccc2c(c1)N=C(c1ccc(F)cc1)c1ccccc1S2 [drawing 1446] | 0.0501 | 63 |
| CCCCNC(=O)c1ccc2c(c1)N=C(c1cccc(Cl)c1)c1cc(F)ccc1S2 [drawing 1447] | 0.00794 | 108 |
| O=C(NCc1ccco1)c1ccc2c(c1)N=C(c1cccc(Cl)c1)c1ccccc1S2 [drawing 1448] | 0.00794 | 85 |
| O=C(NCc1cccc(Cl)c1)c1ccc2c(c1)N=C(c1ccccc1)c1ccccc1S2 [drawing 1449] | 0.00794 |  |
| O=C(NCCCc1ccccc1)c1ccc2c(c1)N=C(c1ccccc1)c1ccccc1S2 [drawing 1450] | 0.00794 |  |
| O=C(Cc1ccccc1)NNC(=O)c1ccc2c(c1)N=C(c1ccc(Cl)cc1)c1ccccc1S2 [drawing 1451] | 0.0501 | 72 |
| O=C(NCCc1ccccn1)c1ccc2c(c1)N=C(c1ccc(Cl)c(Cl)c1)c1ccccc1S2 [drawing 1452] | 0.0501 | 114 |
| O=C(NCc1ccncc1)c1ccc2c(c1)N=C(c1ccc(Br)cc1)c1ccccc1S2 [drawing 1453] | 0.0501 | 80 |
| NS(=O)(=O)c1ccc(CNC(=O)c2ccc3c(c2)N=C(c2ccc(F)cc2)c2ccccc2S3)cc1 [drawing 1454] | 0.0501 | 72 |
| CC(CNC(=O)c1ccc2c(c1)N=C(N1CCCCC1)c1ccccc1S2)c1ccccc1 (stereo not shown) [drawing 1455] | 0.00794 |  |
| O=C(NCc1cccc(Cl)c1)c1ccc2c(c1)N=C(c1ccc(Cl)cc1)c1cc(F)ccc1S2 [drawing 1456] | 0.00794 |  |
| O=C(NCCc1cccc(Cl)c1)c1ccc2c(c1)N=C(c1ccccc1)c1ccccc1S2 [drawing 1457] | 0.00794 |  |
| COc1cccc(C2=Nc3cc(C(=O)NCc4ccc(C)o4)ccc3Sc3ccccc32)n1 [drawing 1458] | 0.00794 | 90 |
| O=C(NCCc1cccc(Cl)c1)c1ccc2c(c1)N=C(c1ccccc1F)c1ccccc1S2 [drawing 1459] | 0.0501 |  |
| O=C(NCCc1ccccn1)c1ccc2c(c1)N=C(c1ccc(Br)cc1)c1ccccc1S2 [drawing 1460] | 0.0501 | 61 |
| COCCNC(=O)c1ccc2c(c1)N=C(c1cccc(Cl)c1)c1ccccc1S2 [drawing 1461] | 0.0501 | 80 |
| O=C(NN1CCCCC1)c1ccc2c(c1)N=C(c1ccccc1)c1ccccc1S2 [drawing 1462] | 0.0501 |  |

| SMILES | Ki [µM] | Binding rat Inh % [%] |
| --- | --- | --- |
| O=C(NN1CCCCCC1)c1ccc2c(c1)N=C(c1ccc(Cl)cc1)c1ccccc1S2 [drawing 1463] | 0.00794 | 82 |
| CCCCNC(=O)c1ccc2c(c1)N=C(c1ccc(Cl)cc1)c1cc(Cl)ccc1S2 [drawing 1464] | 0.00794 | 78 |
| CC(NC(=O)c1ccc2c(c1)N=C(c1cccc(Cl)c1)c1ccccc1S2)c1ccccc1 (stereo not shown) [drawing 1465] | 0.00794 |  |
| O=C(NCCc1cccnc1)c1ccc2c(c1)N=C(c1ccc(Cl)s1)c1ccccc1S2 [drawing 1466] | 0.00794 | 98 |
| O=C(NNCC(F)(F)F)c1ccc2c(c1)N=C(c1cccc(Cl)c1)c1ccccc1S2 [drawing 1467] | 0.0501 | 97 |
| COCCNC(=O)c1ccc2c(c1)N=C(c1cccc(F)c1)c1ccccc1S2 [drawing 1468] | 0.0501 | 86 |
| O=C(NCc1ccccn1)c1ccc2c(c1)N=C(c1ccc(Br)cc1)c1ccccc1S2 [drawing 1469] | 0.0501 | 71 |
| O=C(NCCc1ccccc1)c1ccc2c(c1)N=C(N1CCCCC1)c1ccccc1S2 [drawing 1470] | 0.0631 |  |
| CC(NC(=O)c1ccc2c(c1)N=C(c1ccc(F)cc1)c1ccccc1S2)c1ccccc1 (stereo not shown) [drawing 1471] | 0.00794 |  |
| Cc1cccc(C2=Nc3cc(C(=O)NCC(C)C)ccc3Sc3ccccc32)n1 [drawing 1472] | 0.00794 | 96 |
| O=C(NCCCC(F)(F)F)c1ccc2c(c1)N=C(c1ccccn1)c1ccccc1S2 [drawing 1473] | 0.00794 | 92 |
| C[C@@H]1CCC[C@H](C)N1NC(=O)c1ccc2c(c1)N=C(c1ccc(Cl)cc1F)c1ccccc1S2 [drawing 1474] | 0.00794 | 71 |
| O=C(NCCc1ccccn1)c1ccc2c(c1)N=C(c1cccc(Cl)c1)c1ccccc1S2 [drawing 1475] | 0.0631 | 76 |
| CCOC(=O)c1ccc(C2=Nc3cc(C(=O)NCc4ccccn4)ccc3Sc3ccccc32)cc1 [drawing 1476] | 0.0631 | −43 |
| Cc1ccsc1C1=Nc2cc(C(=O)NC(C)C)ccc2Sc2ccccc21 [drawing 1478] | 0.0631 | 60 |
| CCCCNC(=O)c1ccc2c(c1)N=C(c1cccc(Cl)c1)c1ccccc1S2 [drawing 1479] | 0.00794 |  |
| CCCCNC(=O)c1ccc2c(c1)N=C(c1ccc(Cl)s1)c1ccc(Cl)cc1S2 [drawing 1480] | 0.01 | 90 |
| Cc1ccc(CNC(=O)c2ccc3c(c2)N=C(c2cccc(F)c2)c2ccccc2S3)o1 [drawing 1481] | 0.01 | 88 |
| O=C(NCc1ccccc1Br)c1ccc2c(c1)N=C(c1ccccc1)c1ccccc1S2 [drawing 1483] | 0.0631 |  |
| Clc1ccc(C2=Nc3cc(-c4ncc[nH]4)ccc3Sc3ccccc32)cc1 [drawing 1485] | 0.0631 | 81 |
| NS(=O)(=O)c1ccc(CNC(=O)c2ccc3c(c2)N=C(c2ccc(Cl)cc2)c2ccccc2S3)cc1 [drawing 1486] | 0.0631 | 66 |
| O=C(NN1CCCCC1)c1ccc2c(c1)N=C(c1cccc(Br)c1)c1ccccc1S2 [drawing 1487] | 0.01 |  |
| O=C(NNCC(F)(F)F)c1ccc2c(c1)N=C(c1ccc(Cl)cc1)c1ccccc1S2 [drawing 1488] | 0.01 | 70 |

| SMILES | Ki [µM] | Binding rat Inh % [%] |
| --- | --- | --- |
| CCN(CCNC(=O)c1ccc2c(c1)N=C(c1ccc(Cl)cc1)c1ccccc1S2)c1ccccc1 [drawing 1489] | 0.01 |  |
| CC(C)CNC(=O)c1ccc2c(c1)N=C(c1cccc(F)c1)c1ccccc1S2 [drawing 1490] | 0.01 | 87 |
| O=C(NCc1ccccc1Cl)c1ccc2c(c1)N=C(C1CCCCC1)c1ccccc1S2 [drawing 1491] | 0.01 |  |
| O=C(NCCc1ccc(Cl)cc1)c1ccc2c(c1)N=C(N1CCC(F)(F)CC1)c1ccccc1S2 [drawing 1492] | 0.0631 |  |
| CC(NC(=O)c1ccc2c(c1)N=C(c1ccc(Cl)cc1)c1ccccc1S2)c1ccccc1 (stereo not shown) [drawing 1493] | 0.0631 |  |
| O=C(NN1CCCCC1)c1ccc2c(c1)N=C(c1ccc(F)cn1)c1ccccc1S2 [drawing 1494] | 0.0631 | 94 |
| C[C@@H]1CCC[C@H](C)N1NC(=O)c1ccc2c(c1)N=C(c1ccccc1F)c1ccccc1S2 [drawing 1495] | 0.0631 | 78 |
| CN1c2ccc(C(=O)NCc3ccc(F)cc3)cc2N=C(c2ccc(F)cc2)c2ccccc21 [drawing 1496] | 0.0631 | 83 |
| O=C(NCCc1ccncc1)c1ccc2c(c1)N=C(c1ccc(Cl)c(Cl)c1)c1ccccc1S2 [drawing 1497] | 0.01 | 123 |
| CCCCNC(=O)c1ccc2c(c1)N=C(c1cccc(F)c1)c1ccccc1S2 [drawing 1498] | 0.01 | 82 |
| O=C(NCCc1cccc(Cl)c1)c1ccc2c(c1)N=C(C1CCCCC1)c1ccccc1S2 [drawing 1499] | 0.01 |  |
| CCCCNC(=O)c1ccc2c(c1)N=C(c1ccc(Cl)cc1)c1cc(F)ccc1S2 [drawing 1500] | 0.01 | 90 |
| CCCCNC(=O)c1ccc2c(c1)N=C(c1ccc(Cl)cn1)c1ccccc1S2 [drawing 1501] | 0.01 | 98 |
| O=C(NN1CCCC1)c1ccc2c(c1)N=C(c1ccc(Cl)cc1)c1ccccc1S2 [drawing 1502] | 0.0631 | 63 |
| CCOCCNC(=O)c1ccc2c(c1)N=C(c1ccc(Cl)cc1)c1ccccc1S2 [drawing 1504] | 0.0794 | 71 |
| O=C(NNCc1ccccc1)c1ccc2c(c1)N=C(c1cccc(Br)c1)c1ccccc1S2 [drawing 1505] | 0.0794 | 66 |
| CC(C)CNC(=O)c1ccc2c(c1)N=C(c1ccc(Cl)cn1)c1ccc(Cl)cc1S2 [drawing 1506] | 0.0794 | 90 |
| Cc1ccsc1C1=Nc2cc(C(=O)NN3CCCCCC3)ccc2Sc2ccccc21 [drawing 1507] | 0.01 | 76 |
| COc1ccc(C2=Nc3cc(C(=O)NCC(C)C)ccc3Sc3ccccc32)cc1 [drawing 1508] | 0.01 | 79 |
| CC(C)CCNC(=O)c1ccc2c(c1)N=C(c1ccccc1F)c1ccccc1S2 [drawing 1509] | 0.01 | 85 |
| O=C(NCc1cccc(Cl)c1)c1ccc2c(c1)N=C(c1ccccc1F)c1ccccc1S2 [drawing 1510] | 0.01 |  |
| O=C(NCc1ccncc1)c1ccc2c(c1)N=C(c1cccc(Br)c1)c1ccccc1S2 [drawing 1511] | 0.0794 | 76 |
